Experimental findings from US20100112055A1, “MICROPOROUS FILM AND PREPARATION AND USE THEREOF” (NATIONAL TAIWAN UNIVERSITY, priority 2008, published 2010) are described below.

One may read the AUC(0-inf) as total exposure, with the tail of the curve extrapolated. A lower AUC(0-inf) goes with less exposure. A word on the Cmax: it is the peak of the concentration-time curve. Broadly, the MRT is a mean duration of stay, worked out from the concentration-time curve. As a reminder, the Tmax is the time at which the peak concentration occurs.

The data set is described as follows: Pharmacokinetic study in vivo, plasma theophylline by HPLC. The following applies: male, rabbit, rabbits, intravenous injection, n = 5. The procedure:
The male rabbits were used as an animal model in this invention. Each rabbit was intravenous injection of theophylline solution, orally administered an uncoated theophylline core tablet (TH-Lac) and a coated micropore-controlled release tablet (TH-Lac-A50), respectively. Blood samples were collected at specific time points, and the plasma concentrations of theophylline were analyzed by high-performance liquid chromatography equipped with a reverse-phase column (Hypersil BDS C18, 250×4.6 mm, 5 μm) and a UV spectrophotometer at a wavelength of 272 nm (Shimadzu SPD-6AV). The mobile phase constituted by acetonitrile and 0.2 M acetate buffer solution (pH 4.5) in the ratio of 6.5:93.5% v/v was applied at a flow rate of 1.0 mL/min.

As for `Cn1c(=O)c2[nH]cnc2n(C)c1=O` [IV-TH, theophylline], the AUC(0-inf) was 117 ± 25.9 µg·h/mL, the concentration peaked (Cmax) at 21200 ± 1990 ng/mL, the MRT stood at 7.7 ± 1.16 h and the Tmax stood at 0.25 h.
